Results from patent US8686147B2, “Compound with serotoninergic activity, process for preparing it and pharmaceutical composition comprising it” (Aziende Chimiche Riunite Angelini Francesco A.C.R.A.F. …, priority 2009, dated 2014).

What was measured:
5-HT4 serotonin receptor = molecular target: T1, 5-HT4 serotonin receptor (Cavia porcellus, UniProt O70528); experiment: Binding to the 5-HT4 serotonin receptor (radioligand binding, homogenate of guinea pig striatum); settings: six concentrations, read-out: 5-HT4 (pKi) (converted)
T1 construct: The starting materials used were an homogenate of guinea pig striatum; from tissue; host or cells: guinea pig striatum homogenate
T1 sequence (O70528 whole entry): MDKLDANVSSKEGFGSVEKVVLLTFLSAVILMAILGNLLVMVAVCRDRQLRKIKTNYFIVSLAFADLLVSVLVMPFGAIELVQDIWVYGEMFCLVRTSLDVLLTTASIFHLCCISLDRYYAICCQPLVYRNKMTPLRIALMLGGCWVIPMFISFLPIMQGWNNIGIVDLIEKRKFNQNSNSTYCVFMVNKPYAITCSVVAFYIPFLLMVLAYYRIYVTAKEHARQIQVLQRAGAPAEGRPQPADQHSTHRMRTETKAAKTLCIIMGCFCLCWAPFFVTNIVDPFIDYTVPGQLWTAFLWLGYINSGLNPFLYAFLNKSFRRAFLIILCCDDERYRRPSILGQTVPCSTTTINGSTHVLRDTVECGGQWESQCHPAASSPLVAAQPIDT
Protocol: (§1) Confirmation of the binding to the serotoninergic receptors was performed by means of a biochemical test on purified membranes from recombinant human cells that stably express the specific receptors or from selected animal tissues as described in particular in Grossman C.
(§2) Confirmation of the binding to the serotoninergic receptors was made using purified membranes from selected animal tissues or from recombinant human cells that stably express the specific receptors.
Binding to the 5-HT4 serotonin receptor was performed using standard methods described in: Grossman C. […] The test compounds were tested at six concentrations to obtain the pKi values of the individual compounds.

[1] = molecular target: T2, human 5-HT2A serotonin receptor (Homo sapiens, UniProt P28223); experiment: Binding to the human 5-HT2A serotonin receptor; settings: human 5-HT2A receptor, six concentrations; for Ki: read-out: 5-HT2 (pKi) (converted)
T2 construct: expressed in transfected cells
T2 sequence (P28223 whole entry): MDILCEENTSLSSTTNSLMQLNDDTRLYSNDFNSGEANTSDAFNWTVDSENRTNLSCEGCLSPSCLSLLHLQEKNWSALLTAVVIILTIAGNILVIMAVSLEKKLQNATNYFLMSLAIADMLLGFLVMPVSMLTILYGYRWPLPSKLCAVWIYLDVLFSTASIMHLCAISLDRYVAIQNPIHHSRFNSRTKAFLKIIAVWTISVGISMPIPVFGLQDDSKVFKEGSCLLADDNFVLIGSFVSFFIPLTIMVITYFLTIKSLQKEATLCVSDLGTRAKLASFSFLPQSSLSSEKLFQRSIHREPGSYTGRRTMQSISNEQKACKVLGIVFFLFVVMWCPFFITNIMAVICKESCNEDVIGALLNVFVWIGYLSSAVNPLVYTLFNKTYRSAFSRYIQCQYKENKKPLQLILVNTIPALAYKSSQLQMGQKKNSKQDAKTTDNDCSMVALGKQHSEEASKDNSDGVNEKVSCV
Protocol: as §1, with “C. J. et al. (1993), Br. J. Pharmacol. 109: 618-624, Bonhaus D. W. et al. (1995), Br. J. Pharmacol. 115(4): 622-628; and Saucier C. et al. (1997), J. Neurochem. 68(5): 1998-2011.” for “C.”
as §2
Binding to the human 5-HT2A serotonin receptor was performed via the standard method described in Bonhaus, D. W., Bach C., De Souza A., Salazar F. H., Matsuoka B. D., Zuppan P., Chan H. W., Eglen R. M. (1995): “The pharmacology and distribution of human 5-hydroxytryptamine 2B (5-HT2B) receptor gene products: comparison with 5-HT2A and 5-HT2C receptors.” Br. J. Pharmacol. 115(4): 622-628; and Saucier C., Albert P. R. (1997): “Identification of an endogenous 5-hydroxytryptamine 2A receptor in NIH-3T3 cells: agonist-induced down-regulation involves decreases in receptor RNA and number.” J. Neurochem. 68(5): 1998-2011. The test compounds were tested at six concentrations to obtain the pKi values of the individual compounds.
The values of affinity for the 5-HT4 and 5-HT2A receptor of a number of compounds of formula (I) according to the present invention are given, respectively, in Tables 2 and 3, and expressed as pKi, the value of which is proportionately greater the greater the affinity of the compound for the receptor.

| Compound | Ki (5-HT4 serotonin receptor) [nM] | Ki [1] [nM] | melting point [°C] | 5-HT2 (pKi) [1] |
| --- | --- | --- | --- | --- |
| CC(C)n1cc2c(OCC3CCN(CCc4ccccc4)CC3)nc3ccccc3c2c1 [Compound 5, 4-{[1-(2-Phenyl)ethylpiperid-4-yl]methoxy}-2-isopropyl-2H-pyrrolo[3,4-c]quinoline] | 138 |  |  |  |
| Cl.Cn1cc2c(OCC3CCN(CCN4CCOCC4)CC3)nc3ccccc3c2c1 [Compound 9a, 4-{[1-(2-(4-Morpholinyl)ethyl)piperid-4-yl]methyloxy}-2-methyl-2H-pyrrolo[3,4-c]quinoline hydrochloride] | 2.29 | > 10000 | 190 to 192 |  |
| Cl.Cn1cc2c(OCC3CCN(CC(=O)Nc4ccccc4)CC3)nc3ccccc3c2c1 |  |  | 163 to 165 |  |
| CC(=O)Nc1ccc(CCN2CCC(COc3nc4ccccc4c4cn(C)cc34)CC2)cc1 [Compound 13, 4-[(1-(4-Acetamidophenylethyl)piperid-4-yl)methyloxy]-2-methyl-2H-pyrrolo[3,4-c]quinoline] | 1.86 | > 1000 |  |  |
| COCc1ccc(CCN2CCC(COc3nc4ccccc4c4cn(C)cc34)CC2)cc1 [Compound 16, 4-[(1-(4-Methoxymethylphenylethyl)piperid-4-yl)methyloxy]-2-methyl-2H-pyrrolo[3,4-c]quinoline] | 19.1 |  |  |  |
| Cl.Cn1cc2c(OCC3CCN(CCc4ccc(N)cc4)CC3)nc3ccccc3c2c1 [Compound 11a, 4-[(1-(4-Aminophenylethyl)piperid-4-yl)methyloxy]-2-methyl-2H-pyrrolo[3,4-c]quinoline hydrochloride] | 4.57 |  | 165 to 167 | 6.6 |
| Cn1cc2c(OCC3CCN(CC(=O)Nc4ccccc4)CC3)nc3ccccc3c2c1 [Compound 6, N-Phenyl-2-{4-[2-methyl-2H-pyrrolo[3,4-c]quinolin-4-yloxy-methyl]piperid-1-yl}acetamide] | 132 |  |  |  |
| CCCCN1CCC(COc2nc3ccccc3c3cn(C)cc23)CC1 [Compound 3, 4-[(1-Butylpiperid-4-yl)methyloxy]-2-methyl-2H-pyrrolo[3,4-c]quinoline] | 14.8 | > 1000 |  |  |
| Cn1cc2c(OCC3CCN(CCc4ccc(C(=O)O)cc4)CC3)nc3ccccc3c2c1 [Compound 12a] | 2.24 | > 10000 |  |  |
| Cn1cc2c(OCC3CCN(CCc4ccccc4)CC3)nc3ccccc3c2c1 [Compound 4, 4-{[1-(2-Phenyl)ethylpiperidine-4-yl]methoxy}-2-methyl-2H-pyrrolo[3,4-c]quinoline] | 1.86 |  |  |  |
